Assay results published in paper PMC8777613, “Effect of Hydroxyl Groups Esterification with Fatty Acids on the Cytotoxicity and Antioxidant Activity of Flavones” (Molecules, 2022).
Read-outs that look alike come from different tables or passages of the source.

Key:
rat brain homogenate = assay: Lipid peroxidation (MDA/TBA) induced by FeCl2 and ascorbic acid; format: biochemical; settings: 10 µM compound; for MDA concentration: oxidation by 0.1% FeCl2 and 1 mM ascorbic acid, 1 h 37 °C, control 9.644 ± 1.570
Method: The antioxidant potential of the new flavone derivatives was assessed based on the analysis of malondialdehyde concentration formed as a product of lipid oxidation stimulated by iron (II) ions.
After preparation, the brain was placed on an ice plate and washed with cold 0.9% NaCl. 10% (m/v) brain solution was obtained by homogenization in cold 10 mM TRIS-HCl buffer, pH = 7.5. The homogenate was centrifuged (2000 rpm, 10 min, 4 °C) to obtain supernatant 1 (S1).
100 µM stock solutions of test compounds in DMSO were prepared. The test compound solution was added to a […] S1 homogenate to a final concentration of 10 µM.
The oxidation reaction was induced by adding to the samples with or without the test compounds freshly prepared solutions: 0.1% FeCl2 (0.2 mL) and 1 mM ascorbic acid (0.4 mL). After incubation for 1 h at 37 °C, the reaction was stopped by adding 8.1% sodium dodecyl sulfate (SDS) solution. In order to determine the concentration of MDA, the acetic acid/HCl buffer at pH = 3.4 and 120 μL of 0.8% thiobarbituric acid (TBA) solution at pH = 6 were added to the samples. The samples were incubated for 1 h at 100 °C. After incubation, the samples were cooled on ice and centrifuged for 10 min at 4000 RPM. The absorbance was measured at a wavelength of 532 nm. Blank content: 0.5 mL of acetate buffer + 0.5 mL of TBA solution.
Calculation of malondialdehyde (MDA) concentration (Equation (1)):(1) MDA concentration=∆ A532 nm × 1.56 ×10^−6 [nmol MDA/h/g tissue]

[1] = MTT dye reduction viability test, HaCaT; format: cell-based, human; settings: human; for viability at 72 h, 10 µM / viability at 72 h, 20 µM / viability at 72 h, 40 µM / viability at 72 h, 60 µM / viability at 72 h, 80 µM / viability at 72 h, 100 µM: HaCaT
Method: (§1) We have chosen two types of cell culture lines: human prostate cancer cells (PC3) and normal human immortal keratinocyte cells (HaCaT) (Table 1).
(§2) Human prostate cancer cells (PC3) and human immortal keratinocyte cell line from adult human skin (HaCaT) were obtained from American Type Culture Collection (Teddington, UK) and cultured according to its instructions RPMI 1640 (L0490) medium or DMEM (L0102) medium, respectively, in a 95% air and 5% CO2 humidified incubator at 37 °C. Both media (Biowest) were supplemented with 10% fetal bovine serum (FBS), 100 U/mL penicillin and 100 μg/mL streptomycin. 10 mM stock solutions of tested compounds in DMSO were prepared.
(§3) To assess the cells growth inhibition, the MTT dye reduction test was preformed based on the method described by Präbst et al.. Both PC3 and HaCaT cells (1 × 10^3/well) were seeded into 96-well plates and incubated for 24 h to attach to the bottom of the well in appropriate medium (200 μL) and treated with tested compounds (0–100 μM). The medium with compounds was removed after 72 h and MTT (0.5 mg/mL) in fresh growth medium without serum was added to each well. The plates were incubated in dark for 4 h at 37 °C. Then, the solution in each well was removed and refilled with 100 μL DMSO: isopropanol (1:1) to dissolve formazon crystals. The optical density was measured with an UVM 340 (ASYS Hitech GmbH, Austria) microplate reader at 570 nm. Replicates of three wells for each dosage, including vehicle control, were analyzed for each experiment. The experiments were conducted in triplicate. The results are expressed as IC50 values. The value of IC50 was estimated using CompuSyn version 1.0.

[2] = tested on: human prostate cancer cells (PC3); assay: MTT dye reduction viability test, PC3; format: cell-based; settings: for IC50 / viability at 10 µM / viability at 20 µM / viability at 40 µM / viability at 60 µM / viability at 80 µM / viability at 100 µM: Homo sapiens; for IC50: read-out: Cytotoxic activity IC50, PC3; for viability at 10 µM: PC3, 10 µM; for viability at 20 µM: PC3, 20 µM; for viability at 40 µM: PC3, 40 µM; for viability at 60 µM: PC3, 60 µM; for viability at 80 µM: PC3, 80 µM
Method: as §1, §2, §3

[3] = HaCaT cells (immortal keratinocytes), 72 h exposure, MTT, mean ± SD, read-out: Cytotoxic activity IC50, HaCaT
[4] = HaCaT cells (immortal keratinocytes), 72 h, representative MTT result (Table S1 B)
[5] = HaCaT cells (immortal keratinocytes), 100 µM, 72 h, representative MTT result (Table S1 B), read-out: Cells viability
[6] = 72 h, representative MTT result (Table S1 A)
[7] = PC3, 100 µM, 72 h, representative MTT result (Table S1 A), read-out: Cells viability

SMILES	MDA concentration (rat brain homogenate) [mM × 10^−3]	IC50 at 72 h [1, 3] [µM]	viability at 72 h, 10 µM [1, 4] [%]	viability at 72 h, 20 µM [1, 4] [%]	viability at 72 h, 40 µM [1, 4] [%]	viability at 72 h, 60 µM [1, 4] [%]	viability at 72 h, 80 µM [1, 4] [%]	viability at 72 h, 100 µM [1, 5] [%]	IC50 ([2]; 72 h exposure, MTT, mean ± SD) [µM]	viability at 10 µM [2, 6] [%]	viability at 20 µM [2, 6] [%]	viability at 40 µM [2, 6] [%]	viability at 60 µM [2, 6] [%]	viability at 80 µM [2, 6] [%]	viability at 100 µM [2, 7] [%]	also measured
CCCCCC=CCC=CCCCCCCCC(=O)Oc1ccc2c(=O)cc(-c3ccccc3)oc2c1 [7-Linoleic-Flavone, 7-hydroxy-flavone linoleic ester]	8.010 ± 0.008	65 ± 4.12	88.4	73.2	74.5	57	44.6	34	41.2 ± 2.3	84.6	70.4	46.7	35.9	34.3	39.5	
O=C1CC(c2ccccc2)Oc2ccc(O)cc21 (stereo not shown) [6-Hydroxy-Flavanone, 6-hydroxy-flavanone, reference compound]	7.077 ± 1.815	> 100	99.7	115	113	104	72.2	74.4	> 100	96.4	96	96	96.7	96.4	96.8	reduction of the level of MDA compared to the control sample (rat brain homogenate; rat brain homogenate): 26.62%; viability at 72 h, 100 µM ([1]; HaCaT cells (immortal keratinocytes), 100 μM, 72 h incubation, read-out: cells viability compared to control cells): 73%; viability at 100 µM ([2]; PC3, 100 μM, 72 h incubation, read-out: cells viability compared to control cells): 89%
CCCCCC=CCC=CCCCCCCCC(=O)Oc1ccc2c(c1)C(=O)CC(c1ccccc1)O2 (stereo not shown) [6-Linoleic-Flavanone, 6-hydroxy-flavanone linoleic ester]		80 ± 4.75	95.7	93.8	86.8	73.4	50.3	34.9	48.3 ± 8.73	94.7	76.5	53.3	45.4	31.2	20.2	
COc1cccc2c1C(=O)c1c(O)c3c(c(O)c1C2=O)C[C@@](O)(C(=O)CO)C[C@@H]3O[C@H]1C[C@H](N)[C@H](O)[C@H](C)O1 [doxorubicin, reference compound]																IC50 at 72 h ([1]; Cytotoxic activity IC50, HaCaT): 0.31 µM; IC50 ([2]; 72 h): 0.29 µM
CCC=CCC=CCC=CCCCCCCCC(=O)Oc1ccc2c(=O)cc(-c3ccccc3)oc2c1 [7-Linolenic-Flavone, 7-hydroxy-flavone linolenic ester]		45.4 ± 9.2	106	90.5	66	19.4	15.8	14.6	> 100	90.2	86.3	81.7	79.4	86.8	86.7	cytotoxic potential in PC3 cells (in words) ([2]; PC3, 0–100 μM, 72 h): no cytotoxic potential
O=c1cc(-c2ccccc2)oc2ccc(O)cc12 [Compound 13, 6-Hydroxy-Flavone, reference compound]			96.4	83.8	77.9	95.1	84.9	87.8		89.4	87.8	99	110	87	73.2	
